In paper PMC9325670, “Limited nutrient availability in the tumor microenvironment renders pancreatic tumors sensitive to allosteric IDH1 inhibitors” (Nature Cancer, 2022) one finds IC50 data, which are given here for one compound.

Molecules are shown by their SMILES.

This test addresses T1, wild-type isocitrate dehydrogenase 1 (wtIDH1) (Homo sapiens, UniProt O75874).
T1 construct: gene IDH1; human recombinant IDH1
Description: cell-free fluorometric NADPH formation assay at […] Mg2+. Type of test: biochemical.

T1 sequence (O75874 2-414): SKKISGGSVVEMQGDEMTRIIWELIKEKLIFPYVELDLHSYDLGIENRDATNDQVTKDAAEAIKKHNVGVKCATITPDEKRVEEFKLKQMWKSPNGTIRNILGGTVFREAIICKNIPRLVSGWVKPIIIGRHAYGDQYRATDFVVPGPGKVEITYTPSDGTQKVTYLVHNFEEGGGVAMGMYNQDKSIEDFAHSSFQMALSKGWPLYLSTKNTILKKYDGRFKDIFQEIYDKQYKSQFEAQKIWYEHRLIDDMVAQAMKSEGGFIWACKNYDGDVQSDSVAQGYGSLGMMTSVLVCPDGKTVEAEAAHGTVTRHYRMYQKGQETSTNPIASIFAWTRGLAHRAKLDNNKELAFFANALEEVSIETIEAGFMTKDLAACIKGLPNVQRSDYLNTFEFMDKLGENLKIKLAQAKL

Turning to `CC1(C)CN(C(=O)c2cn[nH]c2)Cc2c(C(=O)Nc3ccc(F)cc3)nn(Cc3ccc(C(F)(F)F)cc3)c21` [FSM-3-002], the IC50 was 91.4 nM.
